Laboratory results: patent publication US20260201008A1, “SECRETIN-DERIVED GLP1R SELECTIVE AGONISTS” (GUBRA A/S, priority 2023, published 2026)
Like-named read-outs stand apart in the source and are kept apart here. Numbered stars: 1 amine (or outer) side, 2 acyl side, 3 side chain; on linkers, the order of the positions; unused ones are H or OH. Square brackets hold non-standard residues; d marks the D form. Side chains are listed from the residue outwards. Peptide text beside a SMILES is read from it. * marks the point of attachment. C20 diacid = O=C(O)CCCCCCCCCCCCCCCCCCC(=O)*; γGlu = O=C(O)[C@H](CCC(=O)[*:2])N[*:1]; AEEA = NCCOCCOCC(=O)O; Aib = CC(C)(N)C(=O)O

Columns and labels:
[1] = Turbidity of crude library peptides (absorbance at 600 nm); assay type: physicochemical; settings: Physical stability of peptides
Procedure, shortened: (§1)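 Fibril formation is scored as average ThT fluorescence from duplicate samples monitored for 72 h at 40° C with shaking stress. Turbidity is the absorbance at 600 nm taken before heating. Peptide concentration was 267 μM at pH 4.0 or pH 7.0.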

[2] = Fibril formation of crude library peptides (Thioflavin T); assay type: physicochemical; parameters: key: average ThT fluorescence emission at 480 nm (ex 450 nm), raw units; settings: Physical stability of peptides
Procedure, shortened: as §1

GLP1R = GLP1R (Homo sapiens, UniProt P43220); assay: hGLP1R potency, cAMP accumulation in CHO-K1 cells stably overexpressing hGLP1R; assay type: cell-based; parameters: host or cells: CHO-K1; settings: for EC50: cAMP accumulation; for SCTR EC50/GLP1R EC50 ratio: cAMP accumulation in CHO-K1 cells; for Selectivity: SCTR EC50/GLP1R EC50 ratio
GLP1R, sequence (P43220 24-463): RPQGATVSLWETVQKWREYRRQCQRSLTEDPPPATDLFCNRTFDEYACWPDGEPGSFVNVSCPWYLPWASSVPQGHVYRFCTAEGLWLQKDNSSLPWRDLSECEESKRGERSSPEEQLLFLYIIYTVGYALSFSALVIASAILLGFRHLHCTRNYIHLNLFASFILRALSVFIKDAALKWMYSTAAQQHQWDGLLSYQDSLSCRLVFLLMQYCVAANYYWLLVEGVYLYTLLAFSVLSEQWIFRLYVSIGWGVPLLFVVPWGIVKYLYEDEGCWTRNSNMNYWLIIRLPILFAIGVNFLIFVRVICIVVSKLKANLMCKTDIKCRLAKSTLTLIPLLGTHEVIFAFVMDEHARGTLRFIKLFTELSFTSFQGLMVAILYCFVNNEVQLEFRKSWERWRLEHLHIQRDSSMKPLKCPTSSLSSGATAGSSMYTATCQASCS
Procedure, shortened: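 In the presence of 0.5 mM IBMX, compounds stimulated the cells for 30 minutes at room temperature. Accumulated cAMP was then detected by TR-FRET, with EC50 values fitted by variable-slope nonlinear regression.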

SCTR = SCTR (Homo sapiens, UniProt P47872); assay: hSCTR potency, cAMP accumulation in CHO-K1 cells stably overexpressing hSCTR; assay type: cell-based; parameters: alternatively Euroscreen ES-712-AF; FAST-0161L; host or cells: CHO-K1; settings: cAMP accumulation
SCTR, sequence (P47872 23-440): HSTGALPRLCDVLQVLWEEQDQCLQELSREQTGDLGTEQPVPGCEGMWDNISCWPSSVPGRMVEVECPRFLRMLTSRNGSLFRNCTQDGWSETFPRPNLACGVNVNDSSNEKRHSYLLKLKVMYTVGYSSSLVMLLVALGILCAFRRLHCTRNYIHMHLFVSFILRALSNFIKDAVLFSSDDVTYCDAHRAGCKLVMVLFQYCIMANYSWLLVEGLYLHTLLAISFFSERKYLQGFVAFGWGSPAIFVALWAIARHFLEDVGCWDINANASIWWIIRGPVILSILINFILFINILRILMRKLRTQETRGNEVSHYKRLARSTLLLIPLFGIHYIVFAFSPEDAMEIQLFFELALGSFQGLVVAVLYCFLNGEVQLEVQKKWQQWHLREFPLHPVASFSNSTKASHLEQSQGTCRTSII
Procedure, shortened: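 In this Gs cAMP assay, stably transfected CHO-K1 hSCTR cells were stimulated at room temperature for 30 min in IBMX-containing buffer. Time-resolved FRET gave the signal. Replicates were increased when the top concentration changed or EC50 values differed 5-fold.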

[3] = CHO-K1 cells stably overexpressing hGLP1R, read-out: hGLP1R potency (pEC50) (converted)
[4] = selectivity ratio, hSCTR vs hGLP1R
[5] = CHO-K1 cells stably overexpressing hSCTR, read-out: hSCTR potency (pEC50) (converted)
[6] = CHO-K1 cells overexpressing hGLP1R, read-out: pEC50 hGLPR1 (converted)
[7] = CHO-K1 cells overexpressing hSCTR, read-out: pEC50 hSCTR (converted)

Turbidity (pH 7) [1]	Fibril formation [2]	EC50 (GLP1R; [3]) [nM]	SCTR EC50/GLP1R EC50 ratio (GLP1R; [4])	EC50 (SCTR; [5]) [nM]	EC50 (GLP1R; CHO-K1 cells overexpressing hGLP1R, read-out: hGLP1R pEC50 (converted)) [nM]	SCTR EC50/GLP1R EC50 ratio (GLP1R; selectivity for hGLP1R over hSCTR)	EC50 (SCTR; CHO-K1 cells overexpressing hSCTR, read-out: hSCTR pEC50 (converted)) [nM]	Selectivity (GLP1R)	EC50 (GLP1R; [6]) [nM]	EC50 (SCTR; [7]) [nM]	SMILES
0.92	141730	0.02	353	7.94							CC[C@H](C)[C@H](NC(=O)[C@H](Cc1ccccc1)NC(=O)[C@H](CCCNC(=N)N)NC(=O)[C@H](CCC(N)=O)NC(=O)[C@H](CC(C)C)NC(=O)[C@H](C)NC(=O)[C@H](C)NC(=O)CNC(=O)[C@H](CCC(=O)O)NC(=O)[C@H](CC(C)C)NC(=O)[C@H](CC(C)C)NC(=O)[C@H](Cc1c[nH]c2ccccc12)NC(=O)[C@H](CO)NC(=O)[C@H](Cc1ccc(O)cc1)NC(=O)[C@H](CC(=O)O)NC(=O)[C@H](CO)NC(=O)[C@@H](NC(=O)[C@H](Cc1ccccc1)NC(=O)[C@@H](NC(=O)CNC(=O)[C@H](CCC(=O)O)NC(=O)C(C)(C)NC(=O)[C@@H](N)Cc1c[nH]cn1)[C@@H](C)O)[C@@H](C)O)C(=O)N[C@@H](CCC(N)=O)C(=O)N[C@@H](Cc1c[nH]c2ccccc12)C(=O)N[C@@H](CC(C)C)C(=O)N[C@H](C(N)=O)C(C)C [compound 200] (H-H[Aib]EGTFTSDYSWLLEGAALQRFIQWLV-NH2)
0.08	3061				0.0251	5170	126				CC(C)C[C@H](NC(=O)[C@H](Cc1ccccc1)NC(=O)[C@H](CCCNC(=N)N)NC(=O)[C@H](CCC(N)=O)NC(=O)[C@H](CC(C)C)NC(=O)C(C)(C)NC(=O)[C@H](C)NC(=O)[C@H](CCC(=O)O)NC(=O)[C@H](CCC(=O)O)NC(=O)[C@H](CCCCNC(=O)COCCOCCNC(=O)COCCOCCNC(=O)CC[C@H](NC(=O)CCCCCCCCCCCCCCCCCCC(=O)O)C(=O)O)NC(=O)[C@H](CC(C)C)NC(=O)[C@H](Cc1ccc(O)cc1)NC(=O)[C@H](CO)NC(=O)[C@@H](NC(=O)[C@H](CC(=O)O)NC(=O)[C@H](CO)NC(=O)[C@@H](NC(=O)[C@H](Cc1ccccc1)NC(=O)[C@@H](NC(=O)CNC(=O)[C@H](CCC(=O)O)NC(=O)C(C)(C)NC(=O)[C@@H](N)Cc1c[nH]cn1)[C@@H](C)O)[C@@H](C)O)C(C)C)C(=O)N[C@@H](CCC(=O)O)C(=O)N[C@@H](CCC(=O)O)C(=O)N[C@@H](CC(C)C)C(=O)N[C@H](C(N)=O)C(C)C [compound 151] (H-H[Aib]EGTFTSDVSYLK([AEEA-AEEA-γGlu-C20 diacid])EEA[Aib]LQRFLEELV-NH2)
0.08	5041							7155	0.0501	398	CC(C)C[C@H](NC(=O)[C@H](CCC(=O)O)NC(=O)[C@H](CCCCNC(=O)COCCOCCNC(=O)COCCOCCNC(=O)CC[C@H](NC(=O)CCCCCCCCCCCCCCCCCCC(=O)O)C(=O)O)NC(=O)[C@H](CC(C)C)NC(=O)[C@@H](NC(=O)[C@H](CO)NC(=O)[C@@H](NC(=O)[C@H](CC(=O)O)NC(=O)[C@H](CO)NC(=O)[C@@H](NC(=O)[C@H](Cc1ccccc1)NC(=O)[C@@H](NC(=O)CNC(=O)[C@H](CCC(=O)O)NC(=O)C(C)(C)NC(=O)[C@@H](N)Cc1c[nH]cn1)[C@@H](C)O)[C@@H](C)O)C(C)C)[C@@H](C)O)C(=O)N[C@@H](C)C(=O)N[C@@H](C)C(=O)N[C@H](C(=O)N[C@@H](CCC(N)=O)C(=O)N[C@@H](CCCNC(=N)N)C(=O)N[C@@H](Cc1ccccc1)C(=O)N[C@@H](CC(C)C)C(=O)N[C@@H](CCC(=O)O)C(=O)N[C@@H](Cc1c[nH]cn1)C(=O)N[C@@H](CC(C)C)C(=O)N[C@H](C(N)=O)C(C)C)[C@@H](C)O [compound 67] (H-H[Aib]EGTFTSDVSTLK([AEEA-AEEA-γGlu-C20 diacid])ELAATQRFLEHLV-NH2)
0.08	221619							2998	0.0501	158	CC(C)C[C@H](NC(=O)[C@H](Cc1ccccc1)NC(=O)[C@H](CCCNC(=N)N)NC(=O)[C@H](CCC(N)=O)NC(=O)[C@H](CCC(N)=O)NC(=O)[C@H](C)NC(=O)[C@H](C)NC(=O)[C@H](Cc1ccccc1)NC(=O)[C@H](CCC(=O)O)NC(=O)[C@H](CCCCNC(=O)COCCOCCNC(=O)COCCOCCNC(=O)CC[C@H](NC(=O)CCCCCCCCCCCCCCCCCCC(=O)O)C(=O)O)NC(=O)[C@H](CC(C)C)NC(=O)[C@H](CCCNC(=N)N)NC(=O)[C@H](CO)NC(=O)[C@@H](NC(=O)[C@H](CC(=O)O)NC(=O)[C@H](CO)NC(=O)[C@@H](NC(=O)[C@H](Cc1ccccc1)NC(=O)[C@@H](NC(=O)CNC(=O)[C@H](CCC(=O)O)NC(=O)C(C)(C)NC(=O)[C@@H](N)Cc1c[nH]cn1)[C@@H](C)O)[C@@H](C)O)C(C)C)C(=O)N[C@@H](CCC(=O)O)C(=O)N[C@@H](Cc1c[nH]cn1)C(=O)N[C@@H](CC(C)C)C(=O)N[C@H](C(N)=O)C(C)C [compound 24] (H-H[Aib]EGTFTSDVSRLK([AEEA-AEEA-γGlu-C20 diacid])EFAAQQRFLEHLV-NH2)
0.09	9625							11143	0.0316	316	CC(C)C[C@H](NC(=O)[C@H](CCC(=O)O)NC(=O)[C@H](CCCCNC(=O)COCCOCCNC(=O)COCCOCCNC(=O)CC[C@H](NC(=O)CCCCCCCCCCCCCCCCCCC(=O)O)C(=O)O)NC(=O)[C@H](CC(C)C)NC(=O)[C@H](CCC(=O)O)NC(=O)[C@H](CO)NC(=O)[C@@H](NC(=O)[C@H](CC(=O)O)NC(=O)[C@H](CO)NC(=O)[C@@H](NC(=O)[C@H](Cc1ccccc1)NC(=O)[C@@H](NC(=O)CNC(=O)[C@H](CCC(=O)O)NC(=O)C(C)(C)NC(=O)[C@@H](N)Cc1c[nH]cn1)[C@@H](C)O)[C@@H](C)O)C(C)C)C(=O)N[C@@H](C)C(=O)N[C@@H](C)C(=O)N[C@@H](CCC(=O)O)C(=O)N[C@@H](CCC(N)=O)C(=O)N[C@@H](CCCNC(=N)N)C(=O)N[C@@H](Cc1ccccc1)C(=O)N[C@@H](CC(C)C)C(=O)N[C@@H](CCC(=O)O)C(=O)N[C@@H](Cc1c[nH]cn1)C(=O)N[C@@H](CC(C)C)C(=O)N[C@H](C(N)=O)C(C)C [compound 36] (H-H[Aib]EGTFTSDVSELK([AEEA-AEEA-γGlu-C20 diacid])ELAAEQRFLEHLV-NH2)
0.08	22040							35408	0.0251	1000	CC(C)C[C@H](NC(=O)[C@H](Cc1ccccc1)NC(=O)[C@H](CCCNC(=N)N)NC(=O)[C@H](CCC(N)=O)NC(=O)[C@H](CCC(N)=O)NC(=O)[C@H](C)NC(=O)[C@H](C)NC(=O)[C@@H](NC(=O)[C@H](CCC(=O)O)NC(=O)[C@H](CCCCNC(=O)COCCOCCNC(=O)COCCOCCNC(=O)CC[C@H](NC(=O)CCCCCCCCCCCCCCCCCCC(=O)O)C(=O)O)NC(=O)[C@H](CC(C)C)NC(=O)[C@H](Cc1ccc(O)cc1)NC(=O)[C@H](CO)NC(=O)[C@@H](NC(=O)[C@H](CC(=O)O)NC(=O)[C@H](CO)NC(=O)[C@@H](NC(=O)[C@H](Cc1ccccc1)NC(=O)[C@@H](NC(=O)CNC(=O)[C@H](CCC(=O)O)NC(=O)C(C)(C)NC(=O)[C@@H](N)Cc1c[nH]cn1)[C@@H](C)O)[C@@H](C)O)C(C)C)[C@@H](C)O)C(=O)N[C@@H](CCC(=O)O)C(=O)N[C@@H](Cc1c[nH]cn1)C(=O)N[C@@H](CC(C)C)C(=O)N[C@H](C(N)=O)C(C)C [compound 58] (H-H[Aib]EGTFTSDVSYLK([AEEA-AEEA-γGlu-C20 diacid])ETAAQQRFLEHLV-NH2)
0.21	7498	0.0158	492	7.94							CC[C@H](C)[C@H](NC(=O)[C@H](Cc1ccccc1)NC(=O)[C@H](CCCNC(=N)N)NC(=O)[C@H](CCC(N)=O)NC(=O)[C@H](CC(C)C)NC(=O)[C@H](C)NC(=O)[C@H](C)NC(=O)CNC(=O)[C@H](CCC(=O)O)NC(=O)[C@H](CC(C)C)NC(=O)[C@H](CC(C)C)NC(=O)C(C)(C)NC(=O)[C@H](CO)NC(=O)[C@H](Cc1ccc(O)cc1)NC(=O)[C@H](CC(=O)O)NC(=O)[C@H](CO)NC(=O)[C@@H](NC(=O)[C@H](Cc1ccccc1)NC(=O)[C@@H](NC(=O)CNC(=O)[C@H](CCC(=O)O)NC(=O)C(C)(C)NC(=O)[C@@H](N)Cc1c[nH]cn1)[C@@H](C)O)[C@@H](C)O)C(=O)N[C@@H](CCC(N)=O)C(=O)N[C@@H](Cc1c[nH]c2ccccc12)C(=O)N[C@@H](CC(C)C)C(=O)N[C@H](C(N)=O)C(C)C [compound 197] (H-H[Aib]EGTFTSDYS[Aib]LLEGAALQRFIQWLV-NH2)
